According to ChEMBL document CHEMBL3885881, “DrugMatrix”:

Species: Rattus norvegicus
Test: DrugMatrix - Regimen: Daily Repeat
Format: toxicity, organism-based, Sprague-Dawley
Design: regimen Daily Repeat, gender Male, age 6-8 weeks
Details: in vivo, iv, vehicle 100 % SALINE; for ABSOLUTE BASOPHIL / ABSOLUTE EOSINOPHIL / ABSOLUTE LYMPHOCYTE / ABSOLUTE MONOCYTE / ABSOLUTE SEGMENTED NEUTROPHIL / BASOPHIL / EOSINOPHIL / ERYTHROCYTE COUNT / HEMATOCRIT / HEMOGLOBIN / LEUKOCYTE COUNT / LYMPHOCYTE / MEAN CORPUSCULAR HEMOGLOBIN / MEAN CORPUSCULAR HEMOGLOBIN CONCENTRATION / MEAN CORPUSCULAR VOLUME / MONOCYTE / NEUTROPHIL / NUCLEATED RED BLOOD CELLS / PLATELET COUNT: tissue Blood; for ALANINE AMINOTRANSFERASE / ALBUMIN / ALKALINE PHOSPHATASE / ASPARTATE AMINOTRANSFERASE / BLOOD UREA NITROGEN / CARBON DIOXIDE / CHLORIDE / CHOLESTEROL / CREATINE PHOSPHOKINASE / CREATININE / GLUCOSE / LACTATE DEHYDROGENASE / LIPASE / PHOSPHORUS / POTASSIUM / SODIUM / TOTAL BILIRUBIN / URIC ACID / TOTAL PROTEIN: tissue Plasma
[1] = 400 mg/kg, 72 h, dose level Low, time 3 day
[2] = 400 mg/kg, 120 h, dose level Low, time 5 day
[3] = 1200 mg/kg, 72 h, dose level M1, time 3 day
[4] = 1200 mg/kg, 120 h, dose level M1, time 5 day
[5] = 1800 mg/kg, 72 h, dose level High, time 3 day

## NC(CO)(CO)CO [TROMETHAMINE]
[1]
  ABSOLUTE BASOPHIL: 0 CELLS/uL
  ABSOLUTE EOSINOPHIL: 233.33 CELLS/uL
  ABSOLUTE LYMPHOCYTE: 15317.33 CELLS/uL
  ABSOLUTE MONOCYTE: 347.33 CELLS/uL
  ABSOLUTE SEGMENTED NEUTROPHIL: 1468.67 CELLS/uL
  BASOPHIL: 0%
  EOSINOPHIL: 1.33%
  ERYTHROCYTE COUNT: 5.74 x10E6/uL
  HEMATOCRIT: 36.9%
  HEMOGLOBIN: 13.67 G/DL
  LEUKOCYTE COUNT: 17.37 x10E3/uL
  LYMPHOCYTE: 88.33%
  MEAN CORPUSCULAR HEMOGLOBIN: 23.87 pg
  MEAN CORPUSCULAR HEMOGLOBIN CONCENTRATION: 37.03 G/DL
  MEAN CORPUSCULAR VOLUME: 64.37 fL
  MONOCYTE: 2%
  NEUTROPHIL: 8.33%
  NUCLEATED RED BLOOD CELLS: 0 /100WBC
  PLATELET COUNT: 1402.67 x10E3/uL
  ALANINE AMINOTRANSFERASE: 55.67 u/L
  ALBUMIN: 4.27 G/DL
  ALKALINE PHOSPHATASE: 354.33 u/L
  ASPARTATE AMINOTRANSFERASE: 97 u/L
  BLOOD UREA NITROGEN: 17.67 mg/dL
  CARBON DIOXIDE: 20 mmol/L
  CHLORIDE: 107 MEQ/L
  CHOLESTEROL: 81.67 mg/dL
  CREATINE PHOSPHOKINASE: 249.33 u/L
  CREATININE: 0.23 mg/dL
  GLUCOSE: 184.67 mg/dL
  LACTATE DEHYDROGENASE: 286.33 u/L
  LIPASE: 9.33 u/L
  PHOSPHORUS: 14.23 mg/dL
  POTASSIUM: 7.13 MEQ/L
  SODIUM: 150.03 MEQ/L
  TOTAL BILIRUBIN: 0.23 mg/dL
  URIC ACID: 2.83 mg/dL
[2]
  ABSOLUTE BASOPHIL: 0 CELLS/uL
  ABSOLUTE EOSINOPHIL: 193.67 CELLS/uL
  ABSOLUTE LYMPHOCYTE: 13973.67 CELLS/uL
  ABSOLUTE MONOCYTE: 314 CELLS/uL
  ABSOLUTE SEGMENTED NEUTROPHIL: 1218.67 CELLS/uL
  BASOPHIL: 0%
  EOSINOPHIL: 1.33%
  ERYTHROCYTE COUNT: 5.88 x10E6/uL
  HEMATOCRIT: 36.53%
  HEMOGLOBIN: 13.73 G/DL
  LEUKOCYTE COUNT: 15.7 x10E3/uL
  LYMPHOCYTE: 89%
  MEAN CORPUSCULAR HEMOGLOBIN: 23.33 pg
  MEAN CORPUSCULAR HEMOGLOBIN CONCENTRATION: 37.6 G/DL
  MEAN CORPUSCULAR VOLUME: 62.13 fL
  MONOCYTE: 2%
  NEUTROPHIL: 7.67%
  NUCLEATED RED BLOOD CELLS: 0 /100WBC
  PLATELET COUNT: 1369.33 x10E3/uL
  ALANINE AMINOTRANSFERASE: 59 u/L
  ALBUMIN: 4.13 G/DL
  ALKALINE PHOSPHATASE: 352 u/L
  ASPARTATE AMINOTRANSFERASE: 100.33 u/L
  BLOOD UREA NITROGEN: 18 mg/dL
  CARBON DIOXIDE: 26.67 mmol/L
  CHLORIDE: 105 MEQ/L
  CHOLESTEROL: 63.33 mg/dL
  CREATINE PHOSPHOKINASE: 312.67 u/L
  CREATININE: 0.17 mg/dL
  GLUCOSE: 152 mg/dL
  LACTATE DEHYDROGENASE: 490 u/L
  LIPASE: 8 u/L
  PHOSPHORUS: 13.27 mg/dL
  POTASSIUM: 6.29 MEQ/L
  SODIUM: 147.27 MEQ/L
  TOTAL BILIRUBIN: 0.13 mg/dL
  TOTAL PROTEIN: 6.23 G/DL
  URIC ACID: 1.6 mg/dL
[3]
  ABSOLUTE BASOPHIL: 0 CELLS/uL
  ABSOLUTE EOSINOPHIL: 114.67 CELLS/uL
  ABSOLUTE LYMPHOCYTE: 5662 CELLS/uL
  ABSOLUTE MONOCYTE: 0 CELLS/uL
  ABSOLUTE SEGMENTED NEUTROPHIL: 823.33 CELLS/uL
  BASOPHIL: 0%
  EOSINOPHIL: 1.67%
  ERYTHROCYTE COUNT: 4.96 x10E6/uL
  HEMATOCRIT: 32.13%
  HEMOGLOBIN: 12.23 G/DL
  LEUKOCYTE COUNT: 6.6 x10E3/uL
  LYMPHOCYTE: 86%
  MEAN CORPUSCULAR HEMOGLOBIN: 24.7 pg
  MEAN CORPUSCULAR HEMOGLOBIN CONCENTRATION: 38.17 G/DL
  MEAN CORPUSCULAR VOLUME: 64.73 fL
  MONOCYTE: 0%
  NEUTROPHIL: 12.33%
  NUCLEATED RED BLOOD CELLS: 0 /100WBC
  PLATELET COUNT: 1106 x10E3/uL
  ALANINE AMINOTRANSFERASE: 48.67 u/L
  ALBUMIN: 4.2 G/DL
  ALKALINE PHOSPHATASE: 396.33 u/L
  ASPARTATE AMINOTRANSFERASE: 124 u/L
  BLOOD UREA NITROGEN: 14.67 mg/dL
  CARBON DIOXIDE: 28 mmol/L
  CHLORIDE: 101.67 MEQ/L
  CHOLESTEROL: 82 mg/dL
  CREATINE PHOSPHOKINASE: 177.33 u/L
  CREATININE: 0.16 mg/dL
  GLUCOSE: 166.33 mg/dL
  LACTATE DEHYDROGENASE: 103 u/L
  LIPASE: 8.33 u/L
  PHOSPHORUS: 11.1 mg/dL
  POTASSIUM: 5.72 MEQ/L
  SODIUM: 148.3 MEQ/L
  TOTAL BILIRUBIN: 0.1 mg/dL
  TOTAL PROTEIN: 6.23 G/DL
  URIC ACID: 0.7 mg/dL
[4]
  ABSOLUTE BASOPHIL: 0 CELLS/uL
  ABSOLUTE EOSINOPHIL: 321 CELLS/uL
  ABSOLUTE LYMPHOCYTE: 13922 CELLS/uL
  ABSOLUTE MONOCYTE: 0 CELLS/uL
  ABSOLUTE SEGMENTED NEUTROPHIL: 2357 CELLS/uL
  BASOPHIL: 0%
  EOSINOPHIL: 2%
  ERYTHROCYTE COUNT: 5.71 x10E6/uL
  HEMATOCRIT: 35.9%
  HEMOGLOBIN: 13.45 G/DL
  LEUKOCYTE COUNT: 16.6 x10E3/uL
  LYMPHOCYTE: 84%
  MEAN CORPUSCULAR HEMOGLOBIN: 23.6 pg
  MEAN CORPUSCULAR HEMOGLOBIN CONCENTRATION: 37.45 G/DL
  MEAN CORPUSCULAR VOLUME: 62.95 fL
  MONOCYTE: 0%
  NEUTROPHIL: 14%
  NUCLEATED RED BLOOD CELLS: 0 /100WBC
  PLATELET COUNT: 1326 x10E3/uL
  ALANINE AMINOTRANSFERASE: 51.5 u/L
  ALBUMIN: 4.3 G/DL
  ALKALINE PHOSPHATASE: 460.5 u/L
  ASPARTATE AMINOTRANSFERASE: 147 u/L
  BLOOD UREA NITROGEN: 19.5 mg/dL
  CARBON DIOXIDE: 26.5 mmol/L
  CHLORIDE: 105.5 MEQ/L
  CHOLESTEROL: 61.5 mg/dL
  CREATINE PHOSPHOKINASE: 173 u/L
  CREATININE: 0.2 mg/dL
  GLUCOSE: 161 mg/dL
  LACTATE DEHYDROGENASE: 131.5 u/L
  LIPASE: 7.5 u/L
  PHOSPHORUS: 12.6 mg/dL
  POTASSIUM: 5.85 MEQ/L
  SODIUM: 148.4 MEQ/L
  TOTAL BILIRUBIN: 0.15 mg/dL
  TOTAL PROTEIN: 6.15 G/DL
  URIC ACID: 1.35 mg/dL
[5]
  ABSOLUTE BASOPHIL: 0 CELLS/uL
  ABSOLUTE EOSINOPHIL: 0 CELLS/uL
  ABSOLUTE LYMPHOCYTE: 11188.5 CELLS/uL
  ABSOLUTE MONOCYTE: 305.5 CELLS/uL
  ABSOLUTE SEGMENTED NEUTROPHIL: 3356 CELLS/uL
  BASOPHIL: 0%
  EOSINOPHIL: 0%
  ERYTHROCYTE COUNT: 5.2 x10E6/uL
  HEMATOCRIT: 31.8%
  HEMOGLOBIN: 12.25 G/DL
  LEUKOCYTE COUNT: 14.85 x10E3/uL
  LYMPHOCYTE: 75%
  MEAN CORPUSCULAR HEMOGLOBIN: 23.65 pg
  MEAN CORPUSCULAR HEMOGLOBIN CONCENTRATION: 38.5 G/DL
  MEAN CORPUSCULAR VOLUME: 61.4 fL
  MONOCYTE: 2%
  NEUTROPHIL: 23%
  NUCLEATED RED BLOOD CELLS: 0 /100WBC
  PLATELET COUNT: 1215.5 x10E3/uL
  ALANINE AMINOTRANSFERASE: 64.5 u/L
  ALBUMIN: 4.05 G/DL
  ALKALINE PHOSPHATASE: 290 u/L
  ASPARTATE AMINOTRANSFERASE: 190 u/L
  BLOOD UREA NITROGEN: 19.5 mg/dL
  CARBON DIOXIDE: 24.5 mmol/L
  CHLORIDE: 105.5 MEQ/L
  CHOLESTEROL: 107 mg/dL
  CREATINE PHOSPHOKINASE: 336.5 u/L
  CREATININE: 0.22 mg/dL
  GLUCOSE: 149.5 mg/dL
  LACTATE DEHYDROGENASE: 446 u/L
  LIPASE: 8.5 u/L
  PHOSPHORUS: 13.45 mg/dL
  POTASSIUM: 6.05 MEQ/L
  SODIUM: 147.25 MEQ/L
  TOTAL BILIRUBIN: 0.2 mg/dL
  TOTAL PROTEIN: 6.15 G/DL
  URIC ACID: 0.95 mg/dL
